Laboratory results published in US12350270B2, “Antimalarial agents” (Merck Sharp & Dohme LLC, priority 2019, dated 2025).

system: parasites (ring stage, in human red blood cell culture); test: Parasite LDH growth assay (antiparasite potency, Parasite Assay); format: cell-based, Plasmodium falciparum; details: 0.7% rings, 2% haematocrit, 72 hours at 37° C., LDH readout of parasite growth
Method: Assessing Antiparasite Potency in a Parasite LDH Growth Assay (Parasite Assay)
The parasite stock was maintained at 4% haematocrit in RPMI-Hepes media buffered with sodium bicarbonate and supplemented with 5% heat inactivated human serum and 0.5% albumax.
On the day of assay set up, a blood smear of the parasite culture was Giemsa stained and counted. The parasitemia was adjusted to 0.7% rings and the haematocrit was diluted to 2% in RPMI-Hepes media buffered with sodium bicarbonate and supplemented with 5% heat inactivated human serum and 0.5% albumax. 30 ul of diluted parasites are then added into 10 ul of media+compound in pre-prepared Greiner TC assay plates. Parasite assay plates were placed in gassed humidified boxes in single layer and allowed to incubate at 37° C. for 72 hours. After 72 hours growth, assay plates are sealed with parafilm and frozen flat, in single file at −80° C. overnight. On the following day, assay plates are allowed to thaw at room temperature for 4 hours to which an LDH assay is performed to measure parasite growth.

Compared with `CCC1(CC)CC(=O)N([C@@H]2CCOc3ccc(C(=O)NC4c5ccccc5CC4(O)C(F)(F)F)cc32)C(=N)N1` (single isomer, unassigned) [Example 272A], `CC1(C)CC(=O)N([C@@H]2CCOc3ccc(C(=O)N[C@H]4CC(C)(C)Oc5ccccc54)cc32)C(=N)N1` [Example 12A, (R)-N-((S)-2,2-dimethylchroman-4-yl)-4-(2-imino-4,4-dimethyl-6-oxotetrahydropyrimidin-1(2H)-yl)chromane-6-carboxamide] is 57-fold lower in EC50: 62.5 nM for the first, 1.1 nM for the second.

Going from `CCC1(CC)CC(=O)N([C@@H]2CCOc3ccc(C(=O)NC4c5ccccc5CC4(O)C(F)(F)F)cc32)C(=N)N1` (single isomer, unassigned) [Example 272B] to `COCC1(C)CC(N2C(=N)NC(C)(C)CC2=O)c2cc(C(=O)N[C@@H]3c4ccccc4OC(C)(C)[C@H]3O)ccc2O1` (single isomer, unassigned) [Example 282A], the EC50 falls from 14.3 nM to 7.8 nM (1.8-fold). The second is the more potent here.

Compared with `CCC1(CC)CC(=O)N([C@@H]2CCOc3ccc(C(=O)NC4c5ccccc5CC4(O)C(F)(F)F)cc32)C(=N)N1` (single isomer, unassigned) [Example 272C], `COCC1(C)CC(N2C(=N)NC(C)(C)CC2=O)c2cc(C(=O)N[C@@H]3c4ccccc4OC(C)(C)[C@H]3O)ccc2O1` (single isomer, unassigned) [Example 282B] is 45-fold higher in EC50: 0.9 nM for the first, 40.5 nM for the second. The first is the more potent here.

`CCC1(CC)CC(=O)N([C@@H]2CCOc3ccc(C(=O)NC4c5ccccc5CC4(O)C(F)(F)F)cc32)C(=N)N1` (single isomer, unassigned) [Example 272D] showed an EC50 of 2.3 nM.

same assay, conditions: Plasmodium falciparum, Erythrocyte, 72 h, 0.7% rings, 2% haematocrit, 72 hours at 37° C., LDH readout of parasite growth

First: CCC1(CC)CC(=O)N([C@H]2c3cc(C(=O)NC4c5ccccc5C(F)(F)[C@@H]4O)ccc3O[C@@]2(C)COC)C(=N)N1 (stereo in doubt) [Example 291, (2R,3S)-3-(4,4-diethyl-2-imino-6-oxo-hexahydropyrimidin-1-yl)-N-[(1S,2R)-3,3-difluoro-2-hydroxy-indan-1-yl]-2-(methoxymethyl)-2-methyl-3H-benzofuran-5-carboxamide]
Second: CCC1(CC)CC(=O)N([C@@H]2CC(COC)Oc3ccc(C(=O)N[C@@H]4c5ccccc5OC(C)(C)[C@H]4O)cc32)C(=N)N1 (stereo partly drawn) [Example 18A, (4R)-4-(4,4-diethyl-2-imino-6-oxotetrahydropyrimidin-1(2H)-yl)-N-((3S,4R)-3-hydroxy-2,2-dimethylchroman-4-yl)-2-(methoxymethyl)chromane-6-carboxamide]
The EC50 of the first is 300-fold higher: 240 nM for the first, 0.8 nM for the second. The second is the more potent here.

`CCC1(CC)CC(=O)N(C2CCOc3ccc(C(=O)N[C@H]4CC(C)(C)Oc5ccccc54)cc32)C(=N)N1` (stereo partly drawn) [Example 1A, 4-(4,4-diethyl-2-imino-6-oxotetrahydropyrimidin-1(2H)-yl)-N—((S)-2,2-dimethylchroman-4-yl)chroman-6-carboxamide] and `CCC1(CC)CC(=O)N([C@@H]2CCOc3ccc(C(=O)N[C@H]4CC(C)(C)Oc5ccc(F)cc54)cc32)C(=N)N1` [Example 7A, (R)-4-(4,4-diethyl-2-imino-6-oxotetrahydropyrimidin-1(2H)-yl)-N-((S)-6-fluoro-2,2-dimethylchroman-4-yl)chromane-6-carboxamide] are within 1.5-fold of each other in EC50: 0.5 nM for the first, 0.4 nM for the second.

Compared with `CCC1(CC)CC(=O)N(C2CCOc3ccc(C(=O)N[C@@H]4c5ccccc5OC(C)(C)[C@H]4O)cc32)C(=N)N1` (stereo partly drawn) [Example 2A, 4-(4,4-diethyl-2-imino-6-oxotetrahydropyrimidin-1(2H)-yl)-N-((3S,4R)-3-hydroxy-2,2-dimethylchroman-4-yl)chroman-6-carboxamide], `CCC1(CC)CC(=O)N([C@@H]2CCOc3ccc(C(=O)N[C@@H]4c5cc(Br)ccc5OC(C)(C)[C@H]4O)cc32)C(=N)N1` [Example 15A, (R)-N-((3S,4R)-6-bromo-3-hydroxy-2,2-dimethylchroman-4-yl)-4-(4,4-diethyl-2-imino-6-oxotetrahydropyrimidin-1(2H)-yl)chromane-6-carboxamide] is 1.7-fold lower in EC50: 0.5 nM for the first, 0.3 nM for the second. The second is the more potent here.

Going from `CCC1(CC)CC(=O)N([C@@H]2CCOc3ccc(C(=O)N[C@H]4CCOc5ccccc54)cc32)C(=N)N1` [Example 3A, (R)-N-((S)-chroman-4-yl)-4-(4,4-diethyl-2-imino-6-oxotetrahydropyrimidin-1(2H)-yl)chromane-6-carboxamide] to `CCC1(CC)CC(=O)N([C@@H]2CCOc3ccc(C(=O)N[C@H]4C[C@H](C(F)(F)F)Oc5ccccc54)cc32)C(=N)N1` [Example 6A, (R)-4-(4,4-diethyl-2-imino-6-oxotetrahydropyrimidin-1(2H)-yl)-N-((2R,4S)-2-(trifluoromethyl)chroman-4-yl)chromane-6-carboxamide], the EC50 falls from 2.2 nM to 1.1 nM (2-fold).

Going from `CCC1(CC)CC(=O)N([C@@H]2CCOc3ccc(C(=O)N[C@@H](C)c4ccccc4)cc32)C(=N)N1` [Example 4A, (R)-4-(4,4-diethyl-2-imino-6-oxotetrahydropyrimidin-1(2H)-yl)-N-((S)-1-phenylethyl)chromane-6-carboxamide] to `CCC1(CC)CC(=O)N([C@@H]2CCOc3ccc(C(=O)N[C@@H]4c5ccccc5C[C@H]4O)cc32)C(=N)N1` [Example 5A, (R)-4-(4,4-diethyl-2-imino-6-oxotetrahydropyrimidin-1(2H)-yl)-N-((1R,2R)-2-hydroxy-2,3-dihydro-1H-inden-1-yl)chromane-6-carboxamide], the EC50 falls from 87 nM to 5.9 nM (15-fold).

Compared with `CCC1(CC)CC(=O)N([C@@H]2CCOc3ccc(C(=O)N[C@@H]4C[C@@H](C(F)(F)F)Oc5ccccc54)cc32)C(=N)N1` [Example 6B, (R)-4-(4,4-diethyl-2-imino-6-oxotetrahydropyrimidin-1(2H)-yl)-N-((2S,4R)-2-(trifluoromethyl)chroman-4-yl)chromane-6-carboxamide], `CCC1(CC)CC(=O)N([C@@H]2CCOc3ccc(C(=O)N[C@@H]4CC(C)(C)Oc5ccc(F)cc54)cc32)C(=N)N1` [Example 7B, (R)-4-(4,4-diethyl-2-imino-6-oxotetrahydropyrimidin-1(2H)-yl)-N-((R)-6-fluoro-2,2-dimethylchroman-4-yl)chromane-6-carboxamide] is 2.2-fold higher in EC50: 8.8 nM for the first, 19 nM for the second.

Compared with `CC(C)[C@]1(C)CC(=O)N([C@@H]2CCOc3ccc(C(=O)N[C@H]4CC(C)(C)Oc5ccccc54)cc32)C(=N)N1` [Example 10A, (R)-N-((S)-2,2-dimethylchroman-4-yl)-4-((S)-2-imino-4-isopropyl-4-methyl-6-oxotetrahydropyrimidin-1(2H)-yl)chromane-6-carboxamide], `CC(C)[C@]1(C)CC(=O)N([C@@H]2CCOc3ccc(C(=O)N[C@@H]4c5ccccc5OC(C)(C)C4O)cc32)C(=N)N1` (stereo partly drawn) [Example 11B, (4R)-N-(3-hydroxy-2,2-dimethylchroman-4-yl)-4-((S)-2-imino-4-isopropyl-4-methyl-6-oxotetrahydropyrimidin-1(2H)-yl)chromane-6-carboxamide] is 170-fold higher in EC50: 0.5 nM for the first, 84 nM for the second. The first is the more potent here.

First: CCC1(CC)CC(=O)N([C@@H]2CCOc3ccc(C(=O)N[C@H]4CC(C)(C)Oc5ccc(Br)cc54)cc32)C(=N)N1 [Example 14A, (R)-N-((S)-6-bromo-2,2-dimethylchroman-4-yl)-4-(4,4-diethyl-2-imino-6-oxotetrahydropyrimidin-1(2H)-yl)chromane-6-carboxamide]
Second: CCC1(CC)CC(=O)N([C@@H]2CCOc3ccc(C(=O)N[C@@H]4c5cc(Cl)ccc5OC(C)(C)[C@H]4O)cc32)C(=N)N1 [Example 19A, (R)-N-((3S,4R)-6-chloro-3-hydroxy-2,2-dimethylchroman-4-yl)-4-(4,4-diethyl-2-imino-6-oxotetrahydropyrimidin-1(2H)-yl)chromane-6-carboxamide]
The EC50 of the first is 3.3-fold higher: 1 nM for the first, 0.3 nM for the second.
